Consider 22 compounds from patent US8017791B2, “Tri-substituted 2-benzhydryl-5-benzylamino-tetrahydro-pyran-4-ol and 6-benzhydryl-4-benzylamino-tetrahydro-pyran-3-ol analogues, and novel, 3,6-disubstituted pyran derivatives” (Wayne State University, priority 2003, dated 2011).

“Also recorded” adds a separate entry of the source. Structures can show the parent of a compound that is named as a salt. Where two headings read alike, the source gives them in different places.

In data set [1] the target is NET (Rattus norvegicus, UniProt Q9WTR4). Put plainly: Inhibition of [3H]nisoxetine binding to NET. The protocol: (§1) Biology. […] Briefly, rat striatum was the source for DAT, and cerebral cortex for SERT and NET. […] Test compounds were dissolved in dimethyl sulfoxide (DMSO) and diluted out in 10% (v/v) DMSO. […] At least five triplicate concentrations of each test compound were studied, spaced evenly around the IC50 value. For DAT uptake assays, uptake of 50 nM [^3H]DA into rat striatal synaptosomes was measured exactly as described by us previously. Briefly, rat striatal P2 membrane fractions were incubated with test compounds for 8 min followed by the additional presence of [^3H]DA for 4 min at 25?. […] Construction of inhibition curves and dissolvement of test compounds were as described above.

The target of data set [2] is T1, DAT (Rattus norvegicus, UniProt P23977).
T1 construct: rat striatum was the source for DAT, and cerebral cortex for SERT and NET; from tissue; P2 synaptosomal fraction for uptake
The experiment in a line: Inhibition of [3H]DA uptake by DAT into rat striatal synaptosomes. The format is biochemical. Conditions: for [3H]DA uptake/DAT binding: Table 3, ratio of IC50 values; for IC50: Table 4, rat brain, read-out: DAT uptake, IC50 [3H]DA. The protocol:
as §1

The target of data set [3] is T2, SERT (Rattus norvegicus, UniProt P31652).
T2 construct: rat striatum was the source for DAT, and cerebral cortex for SERT and NET; from tissue; host or cells: rat cerebral cortex
The experiment in a line: Inhibition of [3H]citalopram binding to SERT. Conditions: for SERT binding/DAT binding: Table 3, selectivity ratio of IC50 values. The protocol: as §1

Data set [4] addresses T1, DAT. The experiment in a line: Inhibition of [3H]WIN 35,428 binding to DAT. On the procedure:
as §1

The subject of data set [5] is NET. Put plainly: Inhibition of [3H]nisoxetine binding to NET. Further details: species or system rat. Conditions: Table 3; selectivity ratio of IC50 values. On the procedure:
as §1

The target of data set [6] is T2, SERT. Put plainly: SERT uptake inhibition, [3H]5-HT. It counts as biochemical. Conditions: Table 4; for IC50: rat brain, read-out: SERT uptake, IC50 [3H]5-HT; for blockade of both SERT and NET (SNRI profile), in words: in vitro data.
Where [7] appears, read: Table 2, average ± SEM, read-out: SERT binding, IC50 [3H]citalopram.
Where [8] appears, read: Table 2, average ± SEM, read-out: NET binding, IC50 [3H]nisoxetine.
The mark [9] stands for this setting: Table 2, average ± SEM of three to eight experiments, read-out: DAT binding, IC50, [3H]Win 35,428.
Where [10] appears, read: Table 4, rat brain, read-out: DAT binding, IC50, [3H]Win 35,428.
[11] abbreviates: Table 1, read-out: Inhibition of [3H]citalopram binding to SERT, IC50.
Setting [12] is: Table 1, read-out: Inhibition of [3H]nisoxetine binding to NET, IC50.
[13] abbreviates: Table 1, rat striatum, read-out: Inhibition of [3H]Win 35,428 binding to DAT IC50.

T1 sequence (P23977 whole entry): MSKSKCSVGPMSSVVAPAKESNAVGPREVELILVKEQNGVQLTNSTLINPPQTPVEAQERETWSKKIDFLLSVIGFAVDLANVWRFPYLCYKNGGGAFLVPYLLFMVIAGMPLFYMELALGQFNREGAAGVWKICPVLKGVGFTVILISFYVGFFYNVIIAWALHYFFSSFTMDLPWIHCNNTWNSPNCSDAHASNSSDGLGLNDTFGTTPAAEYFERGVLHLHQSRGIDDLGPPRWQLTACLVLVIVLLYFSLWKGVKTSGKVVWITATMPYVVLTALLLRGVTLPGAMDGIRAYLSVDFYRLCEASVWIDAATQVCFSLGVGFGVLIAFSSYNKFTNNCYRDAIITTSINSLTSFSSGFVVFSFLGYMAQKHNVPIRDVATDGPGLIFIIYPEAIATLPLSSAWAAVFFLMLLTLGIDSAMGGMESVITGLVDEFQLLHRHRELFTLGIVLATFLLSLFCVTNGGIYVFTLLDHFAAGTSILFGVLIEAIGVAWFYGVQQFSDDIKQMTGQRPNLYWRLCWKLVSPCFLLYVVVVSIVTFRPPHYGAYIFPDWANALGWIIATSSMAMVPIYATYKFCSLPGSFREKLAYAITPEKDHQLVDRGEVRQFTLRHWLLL
T2 sequence (P31652 whole entry): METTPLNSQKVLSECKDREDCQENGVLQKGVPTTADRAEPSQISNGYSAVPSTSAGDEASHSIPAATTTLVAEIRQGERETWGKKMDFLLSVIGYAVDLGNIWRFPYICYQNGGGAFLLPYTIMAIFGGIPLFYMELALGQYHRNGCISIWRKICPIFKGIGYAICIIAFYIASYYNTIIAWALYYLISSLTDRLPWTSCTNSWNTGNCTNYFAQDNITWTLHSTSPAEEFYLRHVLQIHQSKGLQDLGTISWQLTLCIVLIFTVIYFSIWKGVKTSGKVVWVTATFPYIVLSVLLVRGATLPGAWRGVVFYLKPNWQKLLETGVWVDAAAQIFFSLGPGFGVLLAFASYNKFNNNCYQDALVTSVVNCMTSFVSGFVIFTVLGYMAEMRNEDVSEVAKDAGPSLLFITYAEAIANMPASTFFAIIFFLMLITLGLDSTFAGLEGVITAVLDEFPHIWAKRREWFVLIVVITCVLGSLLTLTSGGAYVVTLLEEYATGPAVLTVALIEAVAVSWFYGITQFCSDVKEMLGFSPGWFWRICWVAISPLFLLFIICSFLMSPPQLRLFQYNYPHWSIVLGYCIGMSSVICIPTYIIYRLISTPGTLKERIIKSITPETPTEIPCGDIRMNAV

For the compound `Nc1ccc(CN[C@H]2CC[C@@H](C(c3ccccc3)c3ccccc3)OC2)cc1` (relative stereo) [Compound 16o, Cis-(6-benzhydryl-tetrahydropyran-3-yl)-(4-amino-benzyl)-amine], at NET [1], the “potency at NET, in words” value is “high potency at NET; also recorded: high potency for the NET”. Moreover, the “[3H]DA uptake/DAT binding” value at DAT [2] is given as 1.02.

As to `Oc1ccc(CN[C@H]2CC[C@@H](C(c3ccccc3)c3ccccc3)OC2)cc1` (relative stereo) [Compound 16h, Cis-(6-benzhydryl-tetrahydropyran-3-yl)-(4-hydroxy-benzyl)-amine], the IC50 on SERT [3] (setting [7]) amounted to 398 ± 22 nM; at DAT [4] (read-out: IC50 at the DAT) it was 78.4 nM. For the same compound, the “potency at NET, in words” value on NET [1] is on record as “high potency for the NET”.

In the case of `Fc1ccc(CCN[C@H]2CC[C@@H](C(c3ccccc3)c3ccccc3)OC2)cc1` (relative stereo) [Compound 16p, Cis-(6-benzhydryl-tetrahydropyran-3-yl)-[2-(4-fluoro-phenyl)-ethyl]-amine], the concentration for half-maximal inhibition (IC50) at SERT [3] (setting [7]) was determined as 3950 nM; at NET [1] (setting [8]), 5210 nM; on DAT [4] (setting [9]), 129 ± 58 nM. Moreover, at SERT [3], the “SERT binding/DAT binding” value was 30.6. The “NET binding/DAT binding” value in the data set with NET [5] worked out at 40.4.

Turning to `c1ccc(C(c2ccccc2)C2CCC(NCc3c[nH]c4ccccc34)CO2)cc1` (stereo not drawn) [Compound 16f, Cis-(6-benzhydryl-tetrahydropyran-3-yl)-(3-indole-methyl)-amine], the half-inhibitory concentration (IC50) at SERT [3] (setting [7]) is 2590 nM; on NET [1] (read-out: IC50 for the NET), 1860 nM; at DAT [4] (read-out: IC50 at the DAT), 794 nM. At SERT [3], the “SERT binding/DAT binding” value is reported as 3.3. Moreover, the “NET binding/DAT binding” value in the data set on NET [5] was found to be 2.3.

As to `O[C@H]1C[C@H](C(c2ccccc2)c2ccccc2)OC[C@@H]1NCc1ccccc1` [(+)-29d, (2R,4S,5S)-2-benzhydryl-5-benzylamino-tetrahydro-pyran-4-ol], the half-inhibitory concentration (IC50) was 6120 ± 730 nM at SERT [6], 596 ± 84 nM at DAT [4] (setting [10]) and 341 ± 43 nM at DAT [2].

Take `N#Cc1ccc(CN[C@H]2CC[C@@H](C(c3ccccc3)c3ccccc3)OC2)cc1` (relative stereo) [Compound 16c, Cis-(6-benzhydryl-tetrahydropyran-3-yl)-(4-cyano-benzyl)-amine]: the results for the IC50 at SERT [3] (setting [7]) and on NET [1] (setting [8]) were 863 ± 52 nM and 1580 nM, respectively. Also, on DAT [2], the “[3H]DA uptake/DAT binding” value amounted to 1.1.

As for `O[C@@H]1C[C@@H](C(c2ccccc2)c2ccccc2)OC[C@H]1NCc1ccccc1` [(−)-29d, (2S,4R,5R)-2-benzhydryl-5-benzylamino-tetrahydro-pyran 4-ol], the 50% inhibitory concentration (IC50) is 862 ± 36 nM on SERT [6] and 600 ± 79 nM at DAT [2].

Take `O[C@@H]1C[C@@H](C(c2ccccc2)c2ccccc2)OC[C@H]1NCc1ccc2[nH]ccc2c1` [(−)-32b, (2S,4R,5R)-2-benzhydryl-5-[(1H-indol-5-ylmethyl)-amino]-tetrahydropyran-4-ol]: the “blockade of both SERT and NET (SNRI profile), in words” value (shortened to “blockade of both SERT and NET”) on SERT [6] is “potent blockers for both SERT and NET”; on SERT [6] (listed as (−)32b), “dual transport blockers”. Also, the results for the 50% inhibitory concentration (IC50) at DAT [4] (setting [10]) and on DAT [2] were 705 ± 176 nM and 162 ± 11 nM, respectively.

As for `Fc1ccc(CN[C@@H]2CCO[C@@H](C(c3ccccc3)c3ccccc3)C2)cc1` (relative stereo) [Compound 7b, trans-(2-benzhydryl-tetrahydropyran-4-yl)-(4-fluoro-benzyl)-amine], the half-inhibitory concentration (IC50) worked out at 4780 nM on SERT [3] (setting [11]); 4780 nM on SERT [3] (setting [7]); 17500 nM at NET [1] (setting [12]); 17500 nM on NET [1] (setting [8]); 1580 nM on DAT [4] (setting [13]); 1580 nM at DAT [4] (setting [9]). At SERT [3], the “SERT binding/DAT binding” value is 3. Moreover, the “NET binding/DAT binding” value in the data set with NET [5] was 11.1. For the same compound, the “activity at DAT, in words” value on DAT [4] was “much weaker at DAT”.

As for `c1ccc(C(c2ccccc2)[C@@H]2CC[C@H](NCc3ccc4[nH]ccc4c3)CO2)cc1` (relative stereo) [Compound 16n, Cis-(6-benzhydryl-tetrahydropyran-3-yl)-(1H-iodo-5-ylmethyl)-amine], the half-maximal inhibitory concentration (IC50) on SERT [3] (setting [7]) was 325 ± 20 nM; on NET [1] (setting [8]), 56 ± 6 nM; on DAT [4] (read-out: DAT binding, IC50, [3H]Win 35,428), 587 ± 66 nM. Moreover, the “SERT binding/DAT binding” value at SERT [3] is listed as 0.55. Also, the “NET binding/DAT binding” value with NET [5] is reported as 0.09. Moreover, on NET [1], the “potency at NET, in words” value was “high affinity; also recorded: strong selective potency at NET”.

As for `Oc1ccc(CN[C@H]2CC[C@@H](C(c3ccccc3)c3ccccc3)OC2)cc1` [(−)-37a, cis-(3S,6S)-(6-benzhydryl-tetrahydropyran-3-yl)-(4-hydroxy-benzyl)-amine], the 50% inhibitory concentration (IC50) on SERT [6] came to 42 ± 3 nM; on DAT [4] (setting [10]), 280 ± 8 nM; at DAT [2] it was 114 ± 8 nM. The “blockade of both SERT and NET” value at SERT [6] was “potent blockers for both SERT and NET”; on SERT [6] (listed as (−)37a), “dual transport blockers”.

With `COc1ccc(CN[C@@H]2CO[C@H](C(c3ccccc3)c3ccccc3)C[C@H]2O)cc1` [(−)-29a, (2S,4R,5R)-2-benzhydryl-5-(4-methoxy-benzylamino)-tetrahydropyran-4-ol], the “blockade of both SERT and NET” value is “potent blockers for both SERT and NET” at SERT [6]; “dual transport blockers” at SERT [6] (listed as (−)29a).

As to `Oc1ccc(CN[C@@H]2CC[C@H](C(c3ccccc3)c3ccccc3)OC2)cc1` [(+)-37a, cis-(3R,6R)-(6-benzhydryl-tetrahydropyran-3-yl)-(4-hydroxy-benzyl)-amine], the IC50 on SERT [6] was determined as 209 ± 25 nM; at DAT [4] (setting [10]), 141 ± 2.2 nM; on DAT [2] it was 90.7 ± 4 nM.

`c1ccc(C(c2ccccc2)C2CCC(NCc3cc4ccccc4[nH]3)CO2)cc1` (stereo not drawn) (as salt: oxalate) [Compound 16g, Cis-(6-benzhydryl-tetrahydropyran-3-yl)-(2-indole-methyl)-amine] returned a melting point of 215 to 216 °C.

As for `O=[N+]([O-])c1ccc(CN[C@H]2CC[C@@H](C(c3ccccc3)c3ccccc3)OC2)cc1` (relative stereo) (as salt: oxalate) [Compound 16d, Cis-(6-benzhydryl-tetrahydropyran-3-yl)-(4-nitro-benzyl)-amine], the melting point is 236 to 238 °C.

For `Fc1ccc(CN[C@H]2CCO[C@@H](C(c3ccccc3)c3ccccc3)C2)cc1` (relative stereo) [Compound 7a, cis-(2-benzhydryl-tetrahydropyran 4-yl)-(4-fluorobenzyl)-amine], the concentration for half-maximal inhibition (IC50) at SERT [3] (setting [11]) came out at 3310 nM; on SERT [3] (setting [7]) it was 3310 nM; at NET [1] (setting [12]) it was 5100 nM; at NET [1] (setting [8]), 5100 nM; at DAT [4] (setting [13]), 1300 nM; at DAT [4] (setting [9]), 1300 nM. In addition, on SERT [3], the “SERT binding/DAT binding” value was 2.5. Besides, the “NET binding/DAT binding” value in the data set on NET [5] turned out to be 3.9. The “activity at DAT, in words” value on DAT [4] is “much weaker at DAT”.

Turning to `c1ccc(CN[C@H]2CC[C@@H](C(c3ccccc3)c3ccccc3)NC2)cc1` [Compound 1a, reference compound], the IC50 on NET [1] (read-out: Inhibition of [3H]nisoxetine binding to NET, IC50) came out at 612 ± 130 nM.

`N[C@H]1CC[C@@H](C(c2ccccc2)c2ccccc2)OC1` (relative stereo) (as salt: HCl) [Compound 15, Cis-(6-benzhydryl-tetrahydropyran-3-yl)-amine] had a melting point of 260 to 261 °C.

As to `O[C@H]1C[C@H](C(c2ccccc2)c2ccccc2)OC[C@@H]1NCc1ccc(F)cc1` (as salt: oxalate) [(+)-29b, (2R,4S,5S)-2-benzhydryl-5-(4-fluoro-benzylamino)-tetrahydro-pyran-4-ol], the melting point was 223 to 225 °C.

Take `COc1ccc(CN[C@H]2CO[C@@H](C(c3ccccc3)c3ccccc3)C[C@@H]2O)cc1` (as salt: oxalate) [(+)-29a, (2R,4S,5S)-2-benzhydryl-5-(4-methoxy-benzylamino)-tetrahydro-pyran-4-ol]: the melting point was in the range of 230 to 232 °C.

Consider `N#Cc1ccc(CN[C@H]2CC[C@@H](C(c3ccccc3)c3ccccc3)OC2)cc1` (relative stereo) (as salt: oxalate) [Compound 16c, Cis-(6-benzhydryl-tetrahydropyran-3-yl)-(4-cyano-benzyl)-amine], for which the melting point fell in the range of 241 to 242 °C.

`O[C@@H]1C[C@@H](C(c2ccccc2)c2ccccc2)OC[C@H]1NCc1ccccc1` (as salt: oxalate) [(−)-29d, (2S,4R,5R)-2-benzhydryl-5-benzylamino-tetrahydro-pyran 4-ol] yielded a melting point of 250 to 252 °C.
